Experiments:
Assay in all cases: IA-DTB cysteine engagement
Format in all cases: binding
[1] = biological target: T1, REEP5_C18 (Homo sapiens, UniProt Q00765); details: 22Rv1 cells, relative to DMSO; for % engagement REEP5_18: 5 μM probe, 1 h (FIG. 5B); for % engagement REEP5_C18: 20 μM probe, 1 h
T1 construct: endogenous in cells; host or cells: 22Rv1
In short: (§1)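 Cells were treated in situ with electrophilic probes, then lysed, and the lysates (2 mg/mL protein) were labeled with IA-DTB for 1 h at ambient temperature. After reduction, alkylation and trypsin digestion, labeled peptides were streptavidin-enriched, TMT-labeled and fractionated. Engagement ratios are probe vs DMSO reporter intensities, averaged across replicates.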

[2] = biological target: T2, ANGEL1_C27 (Homo sapiens, UniProt Q9UNK9); details: 22Rv1 cells, 20 μM probe, 1 h, relative to DMSO
T2 construct: endogenous in cells; host or cells: 22Rv1
T2 sequence (Q9UNK9 1-670): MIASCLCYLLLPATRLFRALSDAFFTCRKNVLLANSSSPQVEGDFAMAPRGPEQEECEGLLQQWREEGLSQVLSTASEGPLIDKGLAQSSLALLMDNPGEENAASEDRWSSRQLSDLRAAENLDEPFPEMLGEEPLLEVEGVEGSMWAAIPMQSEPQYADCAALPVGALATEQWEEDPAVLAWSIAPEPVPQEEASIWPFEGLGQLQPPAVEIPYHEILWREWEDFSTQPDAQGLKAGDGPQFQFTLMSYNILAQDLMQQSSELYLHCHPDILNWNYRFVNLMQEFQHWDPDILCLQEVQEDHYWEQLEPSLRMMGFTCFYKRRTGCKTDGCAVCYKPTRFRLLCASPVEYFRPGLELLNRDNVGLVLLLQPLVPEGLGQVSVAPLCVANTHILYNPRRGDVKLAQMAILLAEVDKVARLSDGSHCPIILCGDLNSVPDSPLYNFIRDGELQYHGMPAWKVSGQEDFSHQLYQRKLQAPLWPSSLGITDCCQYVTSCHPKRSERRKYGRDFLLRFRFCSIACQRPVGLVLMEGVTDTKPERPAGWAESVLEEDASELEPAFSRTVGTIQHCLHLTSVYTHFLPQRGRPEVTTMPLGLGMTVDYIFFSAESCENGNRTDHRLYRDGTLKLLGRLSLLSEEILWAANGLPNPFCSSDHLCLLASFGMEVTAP
In short: as §1

[3] = biological target: T3, APOOL_C74 (Homo sapiens, UniProt Q6UXV4); details: 22Rv1 cells, 20 μM probe, 1 h, relative to DMSO
T3 construct: endogenous in cells; host or cells: 22Rv1
T3 sequence (Q6UXV4 28-268): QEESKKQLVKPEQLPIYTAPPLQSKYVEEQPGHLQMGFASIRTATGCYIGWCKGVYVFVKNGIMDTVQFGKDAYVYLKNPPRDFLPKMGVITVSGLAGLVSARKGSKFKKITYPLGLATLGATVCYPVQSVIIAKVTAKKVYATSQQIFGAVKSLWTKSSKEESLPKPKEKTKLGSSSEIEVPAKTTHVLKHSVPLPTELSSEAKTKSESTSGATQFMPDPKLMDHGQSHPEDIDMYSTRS
In short: as §1

[4] = biological target: T4, TM7SF2_C184 (Homo sapiens, UniProt O76062); details: 22Rv1 cells, 20 μM probe, 1 h, relative to DMSO
T4 construct: endogenous in cells; host or cells: 22Rv1
T4 sequence (O76062 1-418): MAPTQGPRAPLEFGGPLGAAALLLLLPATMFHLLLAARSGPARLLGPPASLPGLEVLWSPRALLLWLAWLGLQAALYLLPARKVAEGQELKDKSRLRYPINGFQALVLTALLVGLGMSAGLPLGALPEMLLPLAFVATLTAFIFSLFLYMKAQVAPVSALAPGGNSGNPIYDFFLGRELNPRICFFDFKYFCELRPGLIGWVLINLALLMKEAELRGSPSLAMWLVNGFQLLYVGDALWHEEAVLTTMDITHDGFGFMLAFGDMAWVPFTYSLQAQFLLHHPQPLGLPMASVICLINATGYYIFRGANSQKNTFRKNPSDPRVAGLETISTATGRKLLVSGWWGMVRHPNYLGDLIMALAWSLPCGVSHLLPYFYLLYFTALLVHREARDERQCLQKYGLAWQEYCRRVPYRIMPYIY
In short: as §1

T1 sequence (Q00765 whole entry): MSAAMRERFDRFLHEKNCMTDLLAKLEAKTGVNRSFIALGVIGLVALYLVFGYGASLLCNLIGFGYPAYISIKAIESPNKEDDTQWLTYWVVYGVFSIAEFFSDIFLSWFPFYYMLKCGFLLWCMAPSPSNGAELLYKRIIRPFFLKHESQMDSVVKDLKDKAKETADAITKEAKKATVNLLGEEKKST

SMILES	% engagement REEP5_18 [1] [%]	% engagement ANGEL1_C27 [2] [%]	% engagement APOOL_C74 [3] [%]	% engagement REEP5_C18 [1] [%]	% engagement TM7SF2_C184 [4] [%]
CC#CC(=O)N1C[C@H](c2ccc(Br)cc2)[C@@H]1C(=O)Nc1cccc2cccnc12 [MY-45B, (2R,3S)-3-(4-bromophenyl)-1-(but-2-ynoyl)-N-(quinolin-8-yl)azetidine-2-carboxamide]	22.75				
C=CC(=O)N1C[C@H](c2ccc(Br)cc2)[C@H]1C(=O)Nc1cccc2cccnc12 [MY-3A, (2S,3S)-1-acryloyl-3-(4-bromophenyl)-N-(quinolin-8-yl)azetidine-2-carboxamide]		45.5	52	88.25	66.5
C=CC(=O)N1C[C@@H](c2ccc(Br)cc2)[C@H]1C(=O)Nc1cccc2cccnc12 [MY-1A, (2S,3R)-1-acryloyl-3-(4-bromophenyl)-N-(quinolin-8-yl)azetidine-2-carboxamide]		63	52.75	91.75	86.5

More lines, now with the values ahead:

% engagement REEP5_18 [1] [%]	% engagement ANGEL1_C27 [2] [%]	% engagement APOOL_C74 [3] [%]	% engagement REEP5_C18 [1] [%]	% engagement TM7SF2_C184 [4] [%]	SMILES
79.00	66.5	64.5	97.5	64	C=CC(=O)N1C[C@H](c2ccc(Br)cc2)[C@@H]1C(=O)Nc1cccc2cccnc12 [MY-1B, (2R,3S)-1-acryloyl-3-(4-bromophenyl)-N-(quinolin-8-yl)azetidine-2-carboxamide]
	54.5	71.25	91.75	100	C=CC(=O)N1C[C@H](c2ccc(Br)cc2)[C@H]1C(=O)Nc1cccc2cccnc12 [MY-3B, (2S,3S)-1-acryloyl-3-(4-bromophenyl)-N-(quinolin-8-yl)azetidine-2-carboxamide]

Source: patent US20250034216A1, “STEREOSELECTIVE COVALENT LIGANDS FOR ONCOGENIC AND IMMUNOLOGICAL PROTEINS” (The Scripps Research Institute, priority 2021, published 2025)
